Laboratory results from patent publication US20250352608A1, “POLYPEPTIDES HAVING ANTI-INFLAMMATORY EFFECTS AND USES THEREOF” (OneSkin, Inc., priority 2020, published 2025).

Legend:
[1] = test system: peripheral blood mononuclear cells (PBMCs); experiment: PBMC proliferation with PHA activation (MTT); type: cell-based, human; conditions: single agent, 5 days (Peptide 14 3.12 μM; rapamycin 100 nM; PHA 5 μg/mL)
Method: The effect of Peptide 14 on T cell activation was assessed by treating PBMCs stimulated with phytohaemagglutinin (PHA) with Peptide 14. PHA usually can trigger lymphocyte activation and cell division. PBMCs that were untreated with PHA or Peptide 14 served as negative control of lymphocyte activation. In the phytohaemagglutinin group, the PBMCs were activated with 5 μg/mL of PHA for 5 days. In the Peptide 14 and PHA group, the PBMCs were activated with 5 μg/mL of PHA and treated with 3.12 μM of Peptide 14 for 5 days. In the Peptide 14 group, the PBMCs were treated with 3.12 μM of Peptide 14 for 5 days. In the rapamycin group, the PBMCs were treated with 100 nM of rapamycin, a well-known immunosuppressive drug for 5 days. In the rapamycin+PHA group, the PBMCs were activated with 5 μg/mL of PHA and treated with 100 nM of rapamycin for 5 days. The viability and proliferation of PBMCs were analyzed by MTT assay. Briefly, after 5 days of treatment, the cells were incubated with […] MTT reagent for 4 hours. Then, 100 μL of DMSO was added into each well, and the absorbance was detected at 595 nm.

[2] = test system: peripheral blood mononuclear cells (PBMCs); experiment: PBMC mRNA of IFN-γ and IL-10 (RT-qPCR); type: cell-based, human; conditions: single agent, 5 days (Peptide 14 3.12 μM; rapamycin 100 nM; PHA 5 μg/mL)
Method: The effect of Peptide 14 on T cell activation was assessed by treating PBMCs stimulated with phytohaemagglutinin (PHA) with Peptide 14. PHA usually can trigger lymphocyte activation and cell division. PBMCs that were untreated with PHA or Peptide 14 served as negative control of lymphocyte activation. In the phytohaemagglutinin group, the PBMCs were activated with 5 μg/mL of PHA for 5 days. In the Peptide 14 and PHA group, the PBMCs were activated with 5 μg/mL of PHA and treated with 3.12 μM of Peptide 14 for 5 days. In the Peptide 14 group, the PBMCs were treated with 3.12 μM of Peptide 14 for 5 days. In the rapamycin group, the PBMCs were treated with 100 nM of rapamycin, a well-known immunosuppressive drug for 5 days. In the rapamycin+PHA group, the PBMCs were activated with 5 μg/mL of PHA and treated with 100 nM of rapamycin for 5 days. […] IFN-γ is typically produced in lymphocytes stimulated by PHA and may be used as marker of PBMC stimulation level. IL-10 is an anti-inflammatory cytokine. The cells from each of the experimental groups were processed for total RNA isolation, reverse transcription of the RNA and RT-qPCR. Data is represented as relative expression normalized to ubiquitous gene expression and untreated PBMC negative control.

Substance: phytohaemagglutinin [PHA]
- relative PBMC proliferation, % of negative control [1]: about 130%
- relative expression level of IFN-γ vs negative control [2]: about 15 fold
- relative expression level of IL-10 (negative control = 1) [2]: near zero
